Laboratory results published in ChEMBL document CHEMBL5214981, “Thionated aminofluorophthalimides reduce classical markers of cellular inflammation in LPS-challenged RAW 264.7 cells” (Bioorg Med Chem Lett, 2022).

Columns and labels:
RAW264.7 [1] = assay: Antiinflammatory activity in LPS-activated mouse RAW264.7 cells assessed as inhibition of TNF-alpha production at 10 uM measured at 24 to 48 hrs after LPS stimulation by ELISA analysis relative to control; type: functional; set-up: scale not given: the % may be the effect or the level left; settings: time 24-48 hrs
RAW264.7 [2] = assay: Antiinflammatory activity in LPS-activated mouse RAW264.7 cells assessed as inhibition of nitrite production at 10 uM measured at 24 to 48 hrs after LPS stimulation by ELISA analysis relative to control; type: functional; set-up: scale not given: the % may be the effect or the level left; settings: time 24-48 hrs
RAW264.7 [3] = assay: Cytotoxicity against LPS-activated mouse RAW264.7 cells assessed as reduction in cell viability at 10 uM measured at 24 to 48 hrs by MTS assay relative to control; type: toxicity, cell-based; settings: raw264.7, 10 µM, time 24-48 hrs
[4] = Metabolic stability in human liver microsomes assessed as compound remaining at 10 uM using pH 7.4 phosphate buffer incubated for 60 mins in the presence of NADPH regenerating system by LC/MS analysis (reference value: 100%); type: ADME, Microsome; settings: read-out: Stability
[5] = Metabolic stability in human liver microsomes assessed as compound remaining at 10 uM using pH 7.4 phosphate buffer incubated for 30 mins in the presence of NADPH regenerating system by LC/MS analysis (reference value: 100%); type: ADME, Microsome; settings: read-out: Stability
[6] = Metabolic stability in human liver microsomes assessed as compound remaining at 10 uM using pH 7.4 phosphate buffer incubated for 30 mins in the absence of NADPH regenerating system by LC/MS analysis (reference value: 100%); type: ADME, Microsome; settings: read-out: Stability
[7] = Metabolic stability in human liver microsomes assessed as compound remaining at 10 uM using pH 7.4 phosphate buffer incubated for 60 mins in the absence of NADPH regenerating system by LC/MS analysis (reference value: 100%); type: ADME, Microsome; settings: read-out: Stability

Structure (SMILES) | Activity (RAW264.7 [1]) [%] | Activity (RAW264.7 [2]) [%] | Activity (RAW264.7 [3]) [%] | remaining at 1 h, 10 µM [4] [%] | remaining at 0.5 h, 10 µM [5] [%] | remaining at 0.5 h, 10 µM [6] [%] | remaining at 1 h, 10 µM [7] [%]
Nc1c(F)ccc2c1C(=O)N(C1CCC(=O)NC1=O)C2=O (centres undefined) | 93 | 100 | 90 |  |  |  | 
Nc1cccc2c1C(=S)N(C1CCC(=S)NC1=O)C2=O (centres undefined) | 113 | 43 | 92 | 48 | 68 | 71 | 53
CC(C)Nc1ccc(F)c2c1C(=O)N(C1CCC(=O)NC1=O)C2=O (centres undefined) | 87.1 | 110.1 | 99.9 |  |  |  | 
Nc1ccc(F)c2c1C(=O)N(C1CCC(=O)NC1=O)C2=O (centres undefined) | 98 | 86 | 100.9 |  |  |  | 
Nc1cccc2c1C(=O)N(C1CCC(=O)NC1=O)C2=O (centres undefined) [POMALIDOMIDE] | 95 | 91 | 95 |  |  |  | 
O=C1CCC(N2C(=O)c3c(F)ccc([N+](=O)[O-])c3C2=O)C(=O)N1 (centres undefined) | 86 | 56.8 | 104.9 |  |  |  | 
CC(C)Nc1ccc(F)c2c1C(=O)N(C1CCC(=S)NC1=O)C2=O (centres undefined) | 94.4 | 74.8 | 112.3 |  |  |  | 
CC(C)Nc1ccc(F)c2c1C(=S)N(C1CCC(=S)NC1=O)C2=O (centres undefined) | 74.7 | 32.3 | 74.1 |  |  |  | 
Nc1ccc(F)c2c1C(=O)N(C1CCC(=S)NC1=O)C2=O (centres undefined) | 107 | 59 | 112.4 |  |  |  | 
Nc1ccc(F)c2c1C(=S)N(C1CCC(=S)NC1=O)C2=O (centres undefined) | 104.1 | 22 | 95 | 41 | 64 | 71 | 46
Nc1c(F)ccc2c1C(=S)N(C1CCC(=S)NC1=O)C2=O (centres undefined) | 114 | 40 | 92 |  |  |  | 
O=C1NC(=S)CCC1N1C(=O)c2c(F)ccc([N+](=O)[O-])c2C1=O (centres undefined) | 51.3 | 4.7 | 44.9 |  |  |  | 
